The text below walks through data of patent US20120121591A1 (priority 2009, published 2012).

Type in all cases: cell-based
One assay deals with hKv1.3 (Homo sapiens, UniProt P22001). Put plainly: cell-based. As to conditions: Kv1.3 (IWQ) IC50 (nM, Avg).
In assay [1] the test system is IL-2 secretion from T cells in human whole blood. Conditions: read-out: WB (IL-2) IC50 (nM, Avg).
Assay [2] concerns IFN-g secretion from T cells in human whole blood. As to conditions: read-out: WB (IFNg) IC50 (nM, Avg).

Sequence of hKv1.3 (P22001 whole entry): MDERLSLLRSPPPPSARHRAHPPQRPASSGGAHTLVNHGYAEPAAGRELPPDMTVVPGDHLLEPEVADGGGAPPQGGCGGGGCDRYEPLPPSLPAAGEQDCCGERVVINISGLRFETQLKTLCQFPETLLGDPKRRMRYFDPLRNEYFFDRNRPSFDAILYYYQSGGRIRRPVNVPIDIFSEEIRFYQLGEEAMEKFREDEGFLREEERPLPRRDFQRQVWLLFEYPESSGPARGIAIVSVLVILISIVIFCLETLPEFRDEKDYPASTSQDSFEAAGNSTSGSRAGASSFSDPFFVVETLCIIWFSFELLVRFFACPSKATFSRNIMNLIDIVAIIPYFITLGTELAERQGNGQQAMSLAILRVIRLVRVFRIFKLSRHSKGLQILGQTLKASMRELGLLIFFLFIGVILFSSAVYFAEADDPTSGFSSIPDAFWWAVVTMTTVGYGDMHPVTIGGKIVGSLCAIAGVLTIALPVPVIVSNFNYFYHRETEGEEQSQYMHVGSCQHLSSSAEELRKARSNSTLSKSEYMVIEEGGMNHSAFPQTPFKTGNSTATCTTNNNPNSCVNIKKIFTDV

The term IC50 denotes the concentration that inhibits the measured activity by half. Consider `CC[C@H](C)[C@@H]1NC(=O)[C@@H](NC(=O)[C@H](CO)NC(=O)[C@@H](N)CCCNC(=N)N)CSSC[C@@H](C(=O)O)NC(=O)[C@H]([C@@H](C)O)NC(=O)CNC(=O)[C@@H]2CSSC[C@@H]3NC(=O)[C@H](CCC(N)=O)NC(=O)[C@H](Cc4ccccc4)NC(=O)[C@H](C)NC(=O)[C@H]([C@@H](C)O)NC(=O)[C@H](CSSC[C@H](NC(=O)[C@H](Cc4ccccc4)NC(=O)[C@H](CO)NC(=O)[C@H](CC(C)C)NC(=O)[C@H](CCCNC(=N)N)NC(=O)[C@H](Cc4ccc(O)cc4)NC(=O)[C@H](CCCCN)NC(=O)[C@H](CCSC)NC(=O)[C@H](CO)NC(=O)[C@H](Cc4c[nH]cn4)NC(=O)[C@H](CCCCN)NC3=O)C(=O)N[C@@H](CCCNC(=N)N)C(=O)N[C@@H](CCCCN)C(=O)N[C@@H]([C@@H](C)O)C(=O)N2)NC(=O)[C@H](CCCNC(=N)N)NC(=O)[C@H](CO)NC(=O)[C@H](CCCCN)NC(=O)[C@@H]2CCCN2C(=O)[C@H]([C@@H](C)CC)NC(=O)[C@H](CCCNC(=N)N)NC(=O)[C@H](CC(=O)O)NC1=O` [[Arg6]ShK], for which the half-maximal inhibitory concentration (IC50) at hKv1.3 turned out to be 0.178 nM; in assay [1] it was 0.246 nM; in assay [2] it was 0.4 nM.
The corresponding values for `CC[C@H](C)[C@@H]1NC(=O)[C@@H](NC(=O)[C@H](CO)NC(=O)[C@@H](N)CCCNC(=N)N)CSSC[C@@H](C(=O)O)NC(=O)[C@H]([C@@H](C)O)NC(=O)CNC(=O)[C@@H]2CSSC[C@@H]3NC(=O)[C@H](CCC(N)=O)NC(=O)[C@H](Cc4ccccc4)NC(=O)[C@H](C)NC(=O)[C@H]([C@@H](C)O)NC(=O)[C@H](CSSC[C@H](NC(=O)[C@H](Cc4ccccc4)NC(=O)[C@H](CO)NC(=O)[C@H](CC(C)C)NC(=O)[C@H](CCCNC(=N)N)NC(=O)[C@H](Cc4ccc(O)cc4)NC(=O)[C@H](CCCCN)NC(=O)[C@H](CCSC)NC(=O)[C@H](CO)NC(=O)[C@H](Cc4c[nH]cn4)NC(=O)[C@H](CCCCN)NC3=O)C(=O)N[C@@H](CCCNC(=N)N)C(=O)N[C@@H](CCCCN)C(=O)N[C@@H]([C@@H](C)O)C(=O)N2)NC(=O)[C@H](CCCNC(=N)N)NC(=O)[C@H](CO)NC(=O)[C@H](CCCCN)NC(=O)[C@@H]2CCCN2C(=O)[C@H](CCCNC(=N)N)NC(=O)[C@H]([C@@H](C)O)NC(=O)[C@H](CC(=O)O)NC1=O` [[Arg7]ShK] are 0.301 nM, 6.39 nM and 11.1 nM.
On to `CC[C@H](C)[C@@H]1NC(=O)[C@@H](NC(=O)[C@H](CO)NC(=O)[C@@H](N)CCCNC(=N)N)CSSC[C@@H](C(=O)O)NC(=O)[C@H]([C@@H](C)O)NC(=O)CNC(=O)[C@@H]2CSSC[C@@H]3NC(=O)[C@H](CCC(N)=O)NC(=O)[C@H](Cc4ccccc4)NC(=O)[C@H](C)NC(=O)[C@H]([C@@H](C)O)NC(=O)[C@H](CSSC[C@H](NC(=O)[C@H](Cc4ccccc4)NC(=O)[C@H](CO)NC(=O)[C@H](CC(C)C)NC(=O)[C@H](CCCNC(=N)N)NC(=O)[C@H](Cc4ccc(O)cc4)NC(=O)[C@H](CCCCN)NC(=O)[C@H](CCSC)NC(=O)[C@H](CO)NC(=O)[C@H](Cc4c[nH]cn4)NC(=O)[C@H](CCCCN)NC3=O)C(=O)N[C@@H](CCCNC(=N)N)C(=O)N[C@@H](CCCCN)C(=O)N[C@@H]([C@@H](C)O)C(=O)N2)NC(=O)[C@H](CCCNC(=N)N)NC(=O)[C@H](CO)NC(=O)[C@H](CCCCN)NC(=O)[C@H](CCCNC(=N)N)NC(=O)[C@H]([C@@H](C)CC)NC(=O)[C@H]([C@@H](C)O)NC(=O)[C@H](CC(=O)O)NC1=O` [[Arg8]ShK], for which the concentration for half-maximal inhibition (IC50) at hKv1.3 was 0.07 nM; in assay [1] it was 0.187 nM; in assay [2], 1.42 nM.
The corresponding values for `CC[C@H](C)[C@@H]1NC(=O)[C@@H](NC(=O)[C@H](CO)NC(=O)[C@@H](N)CCCNC(=N)N)CSSC[C@@H](C(=O)O)NC(=O)[C@H]([C@@H](C)O)NC(=O)CNC(=O)[C@@H]2CSSC[C@@H]3NC(=O)[C@H](CCC(N)=O)NC(=O)[C@H](Cc4ccccc4)NC(=O)[C@H](C)NC(=O)[C@H]([C@@H](C)O)NC(=O)[C@H](CSSC[C@H](NC(=O)[C@H](Cc4ccccc4)NC(=O)[C@H](CO)NC(=O)[C@H](CC(C)C)NC(=O)[C@H](CCCNC(=N)N)NC(=O)[C@H](Cc4ccc(O)cc4)NC(=O)[C@H](CCCCN)NC(=O)[C@H](CCSC)NC(=O)[C@H](CO)NC(=O)[C@H](Cc4c[nH]cn4)NC(=O)[C@H](CCCCN)NC3=O)C(=O)N[C@@H](CCCNC(=N)N)C(=O)N[C@@H](CCCCN)C(=O)N[C@@H]([C@@H](C)O)C(=O)N2)NC(=O)[C@H](CCCNC(=N)N)NC(=O)[C@H](CO)NC(=O)[C@H](CCCNC(=N)N)NC(=O)[C@@H]2CCCN2C(=O)[C@H]([C@@H](C)CC)NC(=O)[C@H]([C@@H](C)O)NC(=O)[C@H](CC(=O)O)NC1=O` [[Arg9]ShK] are 0.096 nM, 0.108 nM and 0.116 nM.
The corresponding values for `CC[C@H](C)[C@@H]1NC(=O)[C@@H](NC(=O)[C@H](CO)NC(=O)[C@@H](N)CCCNC(=N)N)CSSC[C@@H](C(=O)O)NC(=O)[C@H]([C@@H](C)O)NC(=O)CNC(=O)[C@@H]2CSSC[C@@H]3NC(=O)[C@H](CCC(N)=O)NC(=O)[C@H](Cc4ccccc4)NC(=O)[C@H](C)NC(=O)[C@H]([C@@H](C)O)NC(=O)[C@H](CSSC[C@H](NC(=O)[C@H](Cc4ccccc4)NC(=O)[C@H](CO)NC(=O)[C@H](CC(C)C)NC(=O)[C@H](CCCNC(=N)N)NC(=O)[C@H](Cc4ccc(O)cc4)NC(=O)[C@H](CCCCN)NC(=O)[C@H](CCSC)NC(=O)[C@H](CO)NC(=O)[C@H](Cc4c[nH]cn4)NC(=O)[C@H](CCCCN)NC3=O)C(=O)N[C@@H](CCCNC(=N)N)C(=O)N[C@@H](CCCCN)C(=O)N[C@@H]([C@@H](C)O)C(=O)N2)NC(=O)[C@H](CCCNC(=N)N)NC(=O)[C@H](CCCNC(=N)N)NC(=O)[C@H](CCCCN)NC(=O)[C@@H]2CCCN2C(=O)[C@H]([C@@H](C)CC)NC(=O)[C@H]([C@@H](C)O)NC(=O)[C@H](CC(=O)O)NC1=O` [[Arg10]ShK] are 0.07 nM, 0.029 nM and 0.068 nM.
Regarding `CC[C@H](C)[C@@H]1NC(=O)[C@@H](NC(=O)[C@H](CO)NC(=O)[C@@H](N)CCCNC(=N)N)CSSC[C@@H](C(=O)O)NC(=O)[C@H]([C@@H](C)O)NC(=O)CNC(=O)[C@@H]2CSSC[C@@H]3NC(=O)[C@H](CCC(N)=O)NC(=O)[C@H](Cc4ccccc4)NC(=O)[C@H](C)NC(=O)[C@H](CCCNC(=N)N)NC(=O)[C@H](CSSC[C@H](NC(=O)[C@H](Cc4ccccc4)NC(=O)[C@H](CO)NC(=O)[C@H](CC(C)C)NC(=O)[C@H](CCCNC(=N)N)NC(=O)[C@H](Cc4ccc(O)cc4)NC(=O)[C@H](CCCCN)NC(=O)[C@H](CCSC)NC(=O)[C@H](CO)NC(=O)[C@H](Cc4c[nH]cn4)NC(=O)[C@H](CCCCN)NC3=O)C(=O)N[C@@H](CCCNC(=N)N)C(=O)N[C@@H](CCCCN)C(=O)N[C@@H]([C@@H](C)O)C(=O)N2)NC(=O)[C@H](CCCNC(=N)N)NC(=O)[C@H](CO)NC(=O)[C@H](CCCCN)NC(=O)[C@@H]2CCCN2C(=O)[C@H]([C@@H](C)CC)NC(=O)[C@H]([C@@H](C)O)NC(=O)[C@H](CC(=O)O)NC1=O` [[Arg13]ShK], the IC50 against hKv1.3 is 0.149 nM; in assay [1] it was 0.503 nM; in assay [2] it was 0.629 nM.
The corresponding values for `CC[C@H](C)[C@@H]1NC(=O)[C@@H](NC(=O)[C@H](CO)NC(=O)[C@@H](N)CCCNC(=N)N)CSSC[C@@H](C(=O)O)NC(=O)[C@H]([C@@H](C)O)NC(=O)CNC(=O)[C@@H]2CSSC[C@@H]3NC(=O)[C@H](CCC(N)=O)NC(=O)[C@H](Cc4ccccc4)NC(=O)[C@H](CCCNC(=N)N)NC(=O)[C@H]([C@@H](C)O)NC(=O)[C@H](CSSC[C@H](NC(=O)[C@H](Cc4ccccc4)NC(=O)[C@H](CO)NC(=O)[C@H](CC(C)C)NC(=O)[C@H](CCCNC(=N)N)NC(=O)[C@H](Cc4ccc(O)cc4)NC(=O)[C@H](CCCCN)NC(=O)[C@H](CCSC)NC(=O)[C@H](CO)NC(=O)[C@H](Cc4c[nH]cn4)NC(=O)[C@H](CCCCN)NC3=O)C(=O)N[C@@H](CCCNC(=N)N)C(=O)N[C@@H](CCCCN)C(=O)N[C@@H]([C@@H](C)O)C(=O)N2)NC(=O)[C@H](CCCNC(=N)N)NC(=O)[C@H](CO)NC(=O)[C@H](CCCCN)NC(=O)[C@@H]2CCCN2C(=O)[C@H]([C@@H](C)CC)NC(=O)[C@H]([C@@H](C)O)NC(=O)[C@H](CC(=O)O)NC1=O` [[Arg14]ShK] are 0.077 nM, 0.266 nM and 0.307 nM.
For the compound `CC[C@H](C)[C@@H]1NC(=O)[C@@H](NC(=O)[C@H](CO)NC(=O)[C@@H](N)CCCNC(=N)N)CSSC[C@@H](C(=O)O)NC(=O)[C@H]([C@@H](C)O)NC(=O)CNC(=O)[C@@H]2CSSC[C@@H]3NC(=O)[C@H](CCC(N)=O)NC(=O)[C@H](CCCNC(=N)N)NC(=O)[C@H](C)NC(=O)[C@H]([C@@H](C)O)NC(=O)[C@H](CSSC[C@H](NC(=O)[C@H](Cc4ccccc4)NC(=O)[C@H](CO)NC(=O)[C@H](CC(C)C)NC(=O)[C@H](CCCNC(=N)N)NC(=O)[C@H](Cc4ccc(O)cc4)NC(=O)[C@H](CCCCN)NC(=O)[C@H](CCSC)NC(=O)[C@H](CO)NC(=O)[C@H](Cc4c[nH]cn4)NC(=O)[C@H](CCCCN)NC3=O)C(=O)N[C@@H](CCCNC(=N)N)C(=O)N[C@@H](CCCCN)C(=O)N[C@@H]([C@@H](C)O)C(=O)N2)NC(=O)[C@H](CCCNC(=N)N)NC(=O)[C@H](CO)NC(=O)[C@H](CCCCN)NC(=O)[C@@H]2CCCN2C(=O)[C@H]([C@@H](C)CC)NC(=O)[C@H]([C@@H](C)O)NC(=O)[C@H](CC(=O)O)NC1=O` [[Arg15]ShK], the IC50 was determined as 0.088 nM against hKv1.3, 0.162 nM in assay [1] and 0.204 nM in assay [2].
